Here are results for 16 compounds from patent publication US8742173B2, “Phenolic hydrazone macrophage migration inhibitory factor inhibitors” (The Feinstein Institute for Medical Research, priority 2006, dated 2014).

Data set [1] deals with Balb/C mice. As to conditions: Al-Abed et al., 2005; cited from earlier work.
Data set [2] has as its system LPS-treated macrophages. As to conditions: cited from earlier work.
The target in data set [3] is T1, MIF (Homo sapiens, UniProt P14174).
T1 sequence (P14174 2-115 limits assumed): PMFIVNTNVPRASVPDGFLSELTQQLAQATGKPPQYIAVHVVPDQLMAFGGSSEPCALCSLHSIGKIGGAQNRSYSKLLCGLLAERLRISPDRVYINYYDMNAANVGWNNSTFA
Put plainly: Spectrophotometric assay of MIF tautomerase activity on L-dopachrome methyl ester. It counts as biochemical.
Method: The inhibitors 3-15 were dissolved in DMSO at various concentrations (0.1-100 μM) and 1 μL was added to the cuvette with the MIF prior to the addition of the dopachrome.
The inhibitors were dissolved in DMSO at various concentrations (0.1-100 mM) and added to the cuvette with the MIF prior to the addition of the dopachrome.

Data set [4] deals with Balb/C mice. Put plainly: Cecal ligation and puncture (CLP) sepsis model, survival. It counts as in vivo. As to conditions: 4 mg/kg intraperitoneal, initiated 24 h after CLP, continued for 3 days; control 28%. The procedure: FIG. 4 is a graph of experimental results showing that the hydrazone compound 7 is protective after 24 h late treatment in a CLP model. Mice were injected intraperitoneally with compound 7 (“hydrazone”) (4 mg/kg) (n=13, p<0.01) or vehicle 24 h after CLP (n=13). A single injection was composed of 100 μg of Compound 7 (equivalent to 4 mg/kg) in 200 μL of 20% DMSO: 80% saline solution. Additional administrations of compound 7 (bi-daily) were given on days 2 and 3.
All animal experiments were approved by the Institutional Animal Care and Use Committee of the North Shore-Long Island Jewish Research Institute. Male Balb/C mice, ˜8 weeks old, were subjected to cecal ligation and puncture. Details of the CLP procedure has been carried out as follows: In anesthetized male Balb/C mice (ketamine 100 mg/kg and xylazine 8 mg/kg administered intramuscularly) the cecum was ligated and given a single puncture. Abdominal access was gained via a midline incision. The cecum was isolated and ligated with a 6-0 silk ligature below the ileocecal valve, and the cecum punctured once with a 22 G needle, stool (approximately 1 mm) extruded from the hole, and the cecum placed back into the abdominal cavity. The abdomen was closed with two layers of 6-0 Ethilon sutures. […] Animal survival was monitored for 14 days. […]

For data set [5], the system named is Swiss Webster male mice. The data set can be described thus: Carrageenan air pouch model, leukocyte recruitment. It counts as in vivo. The conditions noted are these: oral administration; assessed by inhibition of leukocyte infiltration. As for the experimental part:
Air pouches were made according to standard procedures (Garcia-Ramallo et al., 2002) on Swiss Webster male mice (25-30 g) by injecting sterile air s.c. on day 0 (6 ml) and day 3 (3 ml). On day 6, animals were treated with vehicle (350 μl of 20% DMSO) or compound 7 (7 mg/kg) either intraperitoneal (i.p.) or gavage (oral) as indicated. After 15 min, the animals were challenged by injecting 1 ml 1% carrageenan (in PBS) into the air pouch cavity. Five hrs after carrageenan injection the animals were sacrificed, the pouches washed with PBS, exudate collected, and the total number of infiltrating cells quantitated.
In another experiment, air pouches were made as above. On day 6, animals were treated with vehicle (350 μl of 20% DMSO) or compound 7 (7 mg/kg, gavage) at the indicated times prior to sacrificing and cell harvesting. In all cases, 1% carrageenan was injected into the air pouch cavity 5 hrs before sacrificing.

Data set [6] deals with T1, MIF. As to conditions: previously shown (Dios et al., 2002); read-out: IC50, L-amino acid Schiff bases, MIF tautomerase; cited from earlier work.
Where [7] appears, read: Table 1, L-dopachrome methyl ester substrate, read-out: IC50 for inhibition of MIF tautomerase activity.
Where [8] appears, read: read-out: IC50, MIF tautomerase activity.
[9] abbreviates: read-out: IC50, MIF tautomerase.

Where two headings read alike, the source gives them in different places.

As a reminder, the IC50 is the point on the concentration scale where inhibition reaches its midpoint. Usually melting point stands for the temperature of the solid-liquid transition.

Take `COC(=O)CC1CC(c2ccc(O)cc2)=NO1` (stereo not drawn) [Compound 2, ISO-1]: the “survival in septic mice” value in data set [1] is “significantly improves survival”. Also, the “inhibition of LPS-induced TNF release” value in data set [2] (MIF null macrophages) is “not”; in data set [2] (wild-type macrophages) it was “dose-dependently inhibits”.

`NN=Cc1ccc(O)cc1` [Compound 3] came in with a melting point of 248 to 250 °C. For the same compound, in data set [3] (setting [7]), the IC50 was more than 500000 nM. In data set [3] (setting [8]), the half-inhibitory concentration (IC50) is more than 500000 nM.

As for `CNN=Cc1ccc(O)cc1` [Compound 4], the melting point lay within 58 to 60 °C. In data set [3] (setting [8]), the half-maximal inhibitory concentration (IC50) worked out at 43000 nM.

Take `Oc1ccc(C=NNc2ccccc2)cc1` [Compound 5]: the melting point lay within 154 to 156 °C. Moreover, the half-maximal inhibitory concentration (IC50) in data set [3] (setting [8]) was determined as 2600 nM.

As to `COc1ccc(NN=Cc2ccc(O)cc2)cc1` [Compound 6], the IC50 in data set [3] (setting [7]) amounted to 480 nM.

In the case of `COc1ccc(NN=Cc2ccc(O)c(F)c2)cc1` [Compound 7], the IC50 in data set [3] (setting [9]) stood at 130 nM. In addition, the survival rate in data set [4] amounted to 65%. Besides, in data set [5], the apparent biological half-life was 7-9 hours.

Regarding `COc1ccc(NN=Cc2ccc(O)c(Cl)c2)cc1` [Compound 8], the melting point lay within 108 to 110 °C. The IC50 in data set [3] (setting [9]) amounted to 220 nM.

`COc1ccc(NN=Cc2ccc(O)c(Br)c2)cc1` [Compound 9] yielded a melting point of 135 to 137 °C. Moreover, in data set [3] (setting [9]), the 50% inhibitory concentration (IC50) worked out at 330 nM.

Regarding `CN(N=Cc1ccc(O)cc1)c1ccccc1` [Compound 10], the melting point was 93 to 95 °C. In data set [3] (setting [8]), the 50% inhibitory concentration (IC50) worked out at 300000 nM.

In turn, `CCOC(=O)NN=Cc1ccc(O)cc1` [Compound 12] showed a melting point of 189 to 190 °C.

Turning to `CC(C)(C)OC(=O)NN=Cc1ccc(O)cc1` [Compound 13], the melting point fell in the range of 155 to 156 °C.

Regarding `O=C(NN=Cc1ccc(O)cc1)OCc1ccccc1` [Compound 14], the melting point lay within 159 to 160 °C.

In the case of `COc1ccc(COC(=O)NN=Cc2ccc(O)cc2)cc1` [Compound 15], the melting point lay within 147 to 148 °C.

On to `CC(C)(C)OC(=O)NN=Cc1ccc(O)c(F)c1` [Compound 18], for which the half-maximal inhibitory concentration (IC50) in data set [3] (Table 2, hydrazone carbamates, L-dopachrome methyl ester substrate, read-out: IC50 for inhibition of MIF tautomerase activity) was determined as 2400 nM.

Take `N[C@@H](Cc1ccccc1)C(=O)O` [L-phenylalanine]: the IC50 in data set [6] was 50000 nM.

As to `N[C@@H](Cc1ccc(O)cc1)C(=O)O` [L-tyrosine], the IC50 in data set [6] is 10000 nM.
